Consider two molecules from ChEMBL document CHEMBL1135405, “Solid-phase library synthesis, screening, and selection of tight-binding reduced peptide bond inhibitors of a recombinant Leishmania mexicana cysteine protease B” (J Med Chem, 2002).

For orientation: Km means the substrate concentration at which the rate is half of its maximum.

Square brackets hold non-standard residues; d marks the D form. Peptide text beside a SMILES is read from it. Phe(4-NO2) = N[C@@H](Cc1ccc([N+](=O)[O-])cc1)C(=O)O; 2Abz = Nc1ccccc1C(=O)O

Series [1] has as its system Cysteine protease B (Leishmania mexicana). The series is described as follows: Inhibitory potency against Cysteine protease B, expressed as kinetic constant (kcat/Km).
Compound in series [2]: C[C@@H](O)[C@H](NC(=O)[C@H](CCCN=C(N)N)NC(=O)[C@H](Cc1ccccc1)NC(=O)[C@H](CCCN=C(N)N)NC(=O)[C@@H]1CCCN1C(=O)[C@@H](N)Cc1ccc([N+](=O)[O-])cc1)C(=O)NCC(=O)N[C@@H](CO)C(=O)N[C@@H](CCCCNC(=O)c1ccccc1N)C(=O)NCC(=O)O
The series is described as follows: Inhibitory potency against Cysteine protease B, expressed as kinetic constant (Km). The settings on record: Leishmania mexicana.

Consider `C[C@@H](O)[C@H](NC(=O)[C@H](CCCN=C(N)N)NC(=O)[C@H](Cc1ccccc1)NC(=O)[C@H](CCCN=C(N)N)NC(=O)[C@@H]1CCCN1C(=O)[C@@H](N)Cc1ccc([N+](=O)[O-])cc1)C(=O)NCC(=O)N[C@@H](CO)C(=O)N[C@@H](CCCCNC(=O)c1ccccc1N)C(=O)NCC(=O)O` (H-[Phe(4-NO2)]PRFRTGSK(2Abz)G-OH), for which, in series [1], the k cat/Km was 1300 mM/s.

B1: Human rhinovirus A protease (Human rhinovirus sp.), Q4U254 (protein)
chain: AFRPCNVNTKIGNAKCCPFVCGKAVTFKDRSTCSTYNLSSSLHHILEEDKRRRQVVDVMSAIFQGPISLDAPPPPAIADLLQSVRTPRVIKYCQIIMGHPAECQVERDLNIANSIIAIIANIISIAGIIFVIYKLFCSLQGPYSGEPKPKTKVPERRVVAQGPEEEFGRSILKNNTCVITTGNGKFTGLGIHDRILIIPTHADPGREVQVNGVHTKVLDSYDLYNRDGVKLEITVIQLDRNEKFRDIRKYIPETEDDYPECNLALSANQDEPTIIKVGDVVSYGNILLSGNQTARMLKYNYPTKSGYCGGVLYKIGQILGIHVGGNGRDGFSAMLLRSYFTGQIKVNKHATECGLPDIQTIHTPSKTKLQPSVFYDVFPGSKEPAVLTDNDPRLEVNFKEA
For B1, in series [2], the Michaelis constant (Km) is 1.13 µM.
